{"source": "patent US10016515B2", "about": "“DMA, a bis-benzimidazole, confers radioprotection to the intestine via Akt/NFκB dual pathway activation” (Jawaharlal Nehru University, priority 2016, dated 2018)", "key": {"[1]": {"experiment": "Tissue bio-distribution and tissue pharmacokinetics of DMA", "assay_type": "in vivo, mouse", "details": "for Tmax / concentration at 1 h / concentration at 2 h / concentration at 4 h / concentration at 6 h / concentration at 16 h / half-life / concentration at 24 h / Cmax: Balb/c, mouse; for Tmax / half-life / Cmax: 100 mg/kg oral dose", "protocol": "Tissue samples were collected from the same mice from which blood samples were collected in both doses of DMA. Lung, liver, kidney, intestine, heart, spleen, brain were dissected and rinsed with phosphate buffer saline (PBS) and dried on blotting paper. 100 mg of tissue sample was homogenized for 20 s in chilled acetronitrile and water and further 700 μl chilled acetronitrile was added. The sample was centrifuged at 14000 rpm for 10 min and clear supernatant was collected for analysis on HPLC-MS/MS system.\nA standard DMA calibration from 1-1000 ng/ml with internal standard (20 ng/ml) was quantified. Sample analysis was performed on positive ionization mode LC-MS/MS with multiple reactions monitoring (MRM, m/z Q1/Q3) of DMA (m/z 235.1/412.0, retention time (RT) 5.3 min) and internal standard (m/z 227.1/396.0, RT 6.5 min) (Agilent 6410 series). A gradient method was employed to analyze the plasma samples using mobile phase A (0.1% formic acid in water) and mobile phase B (methanol). The B % was set as 30 (0 min), 90 (10-14 min), 30 (14-24 min) with flow rate of 0.3 ml/min. An injection volume of 10 μl was used for analysis.\nPeak tissue concentration (Cmax) of DMA and time to reach the Cmax (tmax) were read directly from the raw data by visual examination of mean tissue concentration-time profile. The tissue concentration-time data following oral dose were subjected to one-, two- and three-compartmental models using WinNonlin program (version 6.3; Certara Inc, Missouri, USA) to calculate the pharmacokinetic parameters. The pharmacokinetic models were compared according to maximal correlation between observed and predicted concentration, minimal sum of squared residuals, Akaike Information Criterion (AIC) and Schwarz Bayesian Criterion (SBC). However, the tissue concentration-time data following intravenous administration were subjected to non-compartmental approach."}, "[2]": {"test_system": "Akt in MRC5 and A549 cells", "experiment": "Akt kinase assay in cell lines", "assay_type": "cell-based, human", "details": "DMA+Radiation vs control and radiation", "protocol": "Akt kinase activity was determined using Akt Kinase Assay Kit (Nonradioactive) (Cell Signaling Technology, Cat. #9840) following the manufacturer's instructions."}, "Balb/c mice spleen": {"test_system": "Balb/c mice spleen", "experiment": "Endogenous spleen colony forming assay", "assay_type": "in vivo, mouse", "protocol": "Group 1, sham control (normal saline treated); Group 2, DMA treated (200 mg/kg bw); Group 3, radiation control (whole body exposure to 8Gy); Group 4, treated with DMA (200 mg/kg bw) prior to whole body exposure to 8Gy. Mice (6 animals each) were irradiated, 2 h post-administration of DMA. The mice were sacrificed on day 10 and spleens were removed, blotted free of blood, weighed and the spleen index was calculated [spleen index=(spleen weight/body weight)×100]. Subsequently spleens were fixed in Bouin's fixative for 15 min and the number of macroscopic spleen cell colonies was counted manually."}, "[3]": {"details": "kidney, Oral 100 mg/kg, read-out: Tissue DMA concentration, Kidney"}, "[4]": {"details": "liver, iv, i.v. 50 mg/kg, read-out: Tissue DMA concentration, Liver"}, "[5]": {"details": "liver, Oral 100 mg/kg, read-out: Tissue DMA concentration, Liver"}, "[6]": {"details": "lung, iv, i.v. 50 mg/kg, read-out: Tissue DMA concentration, Lung"}, "[7]": {"details": "lung, Oral 100 mg/kg, read-out: Tissue DMA concentration, Lung"}, "[8]": {"details": "spleen, iv, i.v. 50 mg/kg, read-out: Tissue DMA concentration, Spleen"}, "[9]": {"details": "spleen, Oral 100 mg/kg, read-out: Tissue DMA concentration, Spleen"}}, "note": "Read-outs that look alike come from different tables or passages of the source."}
{"compound": "COc1ccc(-c2nc3cc(-c4nc5cc(N6CCN(C)CC6)ccc5[nH]4)ccc3[nH]2)cc1OC", "note": "[DMA, 5-(4-methylpiperazin-1-yl)-2-[2′-(3,4-dimethoxyphenyl)-5′-benzimidazolyl]benzimidazole]", "values": [{"measurement": "Tmax", "setting": "[1]; kidney, read-out: Tmax, Kidney", "result": 4, "unit": "h"}, {"measurement": "concentration at 1 h", "setting": "[1]; kidney, Oral 100 mg/kg, 1 h, read-out: Tissue DMA concentration, Kidney", "result": 342, "unit": "ng/g"}, {"measurement": "concentration at 2 h", "setting": "[1]; [3]", "result": 1020, "unit": "ng/g"}, {"measurement": "concentration at 4 h", "setting": "[1]; kidney, Oral 100 mg/kg, 4 h, read-out: Tissue DMA concentration, Kidney", "result": 1530, "unit": "ng/g"}, {"measurement": "concentration at 6 h", "setting": "[1]; kidney, Oral 100 mg/kg, 6 h, read-out: Tissue DMA concentration, Kidney", "result": 643, "unit": "ng/g"}, {"measurement": "concentration at 16 h", "setting": "[1]; [3]", "result": 193, "unit": "ng/g"}, {"measurement": "concentration at 1 h", "setting": "[1]; liver, intravenous, 50 mg/kg i.v., read-out: Concentration achieved in liver", "result": 41600, "unit": "ng/g"}, {"measurement": "concentration at 1 h", "setting": "[1]; liver, iv, i.v. 50 mg/kg, 1 h, read-out: Tissue DMA concentration, Liver", "result": 41600, "unit": "ng/g"}, {"measurement": "concentration at 2 h", "setting": "[1]; [4]", "result": 2000, "unit": "ng/g"}, {"measurement": "concentration at 4 h", "setting": "[1]; liver, iv, i.v. 50 mg/kg, 4 h, read-out: Tissue DMA concentration, Liver", "result": 30100, "unit": "ng/g"}, {"measurement": "concentration at 6 h", "setting": "[1]; liver, iv, i.v. 50 mg/kg, 6 h, read-out: Tissue DMA concentration, Liver", "result": 40100, "unit": "ng/g"}, {"measurement": "concentration at 16 h", "setting": "[1]; [4]", "result": 22200, "unit": "ng/g"}, {"measurement": "half-life", "setting": "[1]; liver, read-out: Half life, Liver (converted)", "result": 4, "unit": "h"}, {"measurement": "Tmax", "setting": "[1]; liver, read-out: Tmax, Liver", "result": 4, "unit": "h"}, {"measurement": "concentration at 1 h", "setting": "[1]; liver, Oral 100 mg/kg, 1 h, read-out: Tissue DMA concentration, Liver", "result": 161, "unit": "ng/g"}, {"measurement": "concentration at 2 h", "setting": "[1]; [5]", "result": 415, "unit": "ng/g"}, {"measurement": "concentration at 4 h", "setting": "[1]; liver, Oral 100 mg/kg, 4 h, read-out: Tissue DMA concentration, Liver", "result": 2230, "unit": "ng/g"}, {"measurement": "concentration at 6 h", "setting": "[1]; liver, Oral 100 mg/kg, 6 h, read-out: Tissue DMA concentration, Liver", "result": 735, "unit": "ng/g"}, {"measurement": "concentration at 16 h", "setting": "[1]; [5]", "result": 691, "unit": "ng/g"}, {"measurement": "concentration at 24 h", "setting": "[1]; [5]", "result": 192, "unit": "ng/g"}, {"measurement": "concentration at 1 h", "setting": "[1]; lung, intravenous, 50 mg/kg i.v., read-out: Concentration achieved in lung", "result": 109000, "unit": "ng/g"}, {"measurement": "concentration at 1 h", "setting": "[1]; lung, iv, i.v. 50 mg/kg, 1 h, read-out: Tissue DMA concentration, Lung", "result": 109000, "unit": "ng/g"}, {"measurement": "concentration at 2 h", "setting": "[1]; [6]", "result": 2340, "unit": "ng/g"}, {"measurement": "concentration at 4 h", "setting": "[1]; lung, iv, i.v. 50 mg/kg, 4 h, read-out: Tissue DMA concentration, Lung", "result": 1770, "unit": "ng/g"}, {"measurement": "concentration at 6 h", "setting": "[1]; lung, iv, i.v. 50 mg/kg, 6 h, read-out: Tissue DMA concentration, Lung", "result": 1340, "unit": "ng/g"}, {"measurement": "concentration at 16 h", "setting": "[1]; [6]", "result": 993, "unit": "ng/g"}, {"measurement": "concentration at 24 h", "setting": "[1]; [6]", "result": 730, "unit": "ng/g"}, {"measurement": "concentration at 4 h", "setting": "[1]; lung, 100 mg/kg oral, at 4 h, read-out: Concentration reached in lung", "result": 1000, "unit": "ng/g"}, {"measurement": "concentration at 1 h", "setting": "[1]; lung, Oral 100 mg/kg, 1 h, read-out: Tissue DMA concentration, Lung", "result": 211, "unit": "ng/g"}, {"measurement": "concentration at 2 h", "setting": "[1]; [7]", "result": 436, "unit": "ng/g"}, {"measurement": "concentration at 4 h", "setting": "[1]; lung, Oral 100 mg/kg, 4 h, read-out: Tissue DMA concentration, Lung", "result": 1000, "unit": "ng/g"}, {"measurement": "concentration at 6 h", "setting": "[1]; lung, Oral 100 mg/kg, 6 h, read-out: Tissue DMA concentration, Lung", "result": 538, "unit": "ng/g"}, {"measurement": "concentration at 16 h", "setting": "[1]; [7]", "result": 188, "unit": "ng/g"}, {"measurement": "Cmax", "setting": "[1]; small intestine, read-out: Cmax, Small Intestine", "result": 106000, "unit": "ng/g"}, {"measurement": "half-life", "setting": "[1]; small intestine, read-out: Half life, Small Intestine (converted)", "result": 1.9, "unit": "h"}, {"measurement": "Tmax", "setting": "[1]; small intestine, read-out: Tmax, Small Intestine", "result": 2, "unit": "h"}, {"measurement": "concentration at 6 h", "setting": "[1]; spleen, intravenous, 50 mg/kg i.v., read-out: Concentration achieved in spleen", "result": 12100, "unit": "ng/g"}, {"measurement": "concentration at 1 h", "setting": "[1]; spleen, iv, i.v. 50 mg/kg, 1 h, read-out: Tissue DMA concentration, Spleen", "result": 6970, "unit": "ng/g"}, {"measurement": "concentration at 2 h", "setting": "[1]; [8]", "result": 6450, "unit": "ng/g"}, {"measurement": "concentration at 4 h", "setting": "[1]; spleen, iv, i.v. 50 mg/kg, 4 h, read-out: Tissue DMA concentration, Spleen", "result": 2090, "unit": "ng/g"}, {"measurement": "concentration at 6 h", "setting": "[1]; spleen, iv, i.v. 50 mg/kg, 6 h, read-out: Tissue DMA concentration, Spleen", "result": 12100, "unit": "ng/g"}, {"measurement": "concentration at 16 h", "setting": "[1]; [8]", "result": 9600, "unit": "ng/g"}, {"measurement": "concentration at 1 h", "setting": "[1]; spleen, 50 mg/kg intravenous, read-out: C1 hr, Spleen", "result": 6970, "unit": "ng/g"}, {"measurement": "Cmax", "setting": "[1]; spleen, read-out: Cmax, Spleen", "result": 1310, "unit": "ng/g"}, {"measurement": "half-life", "setting": "[1]; spleen, read-out: Half life, Spleen (converted)", "result": 4.2, "unit": "h"}, {"measurement": "Tmax", "setting": "[1]; spleen, read-out: Tmax, Spleen", "result": 2, "unit": "h"}, {"measurement": "concentration at 1 h", "setting": "[1]; spleen, Oral 100 mg/kg, 1 h, read-out: Tissue DMA concentration, Spleen", "result": 401, "unit": "ng/g"}, {"measurement": "concentration at 2 h", "setting": "[1]; [9]", "result": 1310, "unit": "ng/g"}, {"measurement": "concentration at 4 h", "setting": "[1]; spleen, Oral 100 mg/kg, 4 h, read-out: Tissue DMA concentration, Spleen", "result": 681, "unit": "ng/g"}, {"measurement": "concentration at 6 h", "setting": "[1]; spleen, Oral 100 mg/kg, 6 h, read-out: Tissue DMA concentration, Spleen", "result": 558, "unit": "ng/g"}, {"measurement": "concentration at 16 h", "setting": "[1]; [9]", "result": 254, "unit": "ng/g"}, {"measurement": "Tissue DMA concentration, Intestine", "setting": "[1]; i.v. 50 mg/kg, 1 h", "result": "1260000 ng/g of tissue"}, {"measurement": "Tissue accumulation", "setting": "[1]; oral and i.v.", "result": "preferential accumulation in small intestine"}, {"measurement": "Akt kinase activity", "setting": "[2]", "result": "higher Akt kinase activity"}, {"measurement": "Spleen index", "setting": "Balb/c mice spleen; 200 mg/kg oral before 8Gy, day 10", "result": "0.33±0.02"}, {"measurement": "Spleen index", "setting": "Balb/c mice spleen; DMA treatment only, 200 mg/kg", "result": "0.41±0.05"}, {"measurement": "Endogenous colony forming units", "setting": "Balb/c mice spleen; DMA+Radiation, 10th day post-irradiation", "result": "11.25±1.7"}]}
